# Reference: patent US10881110B2, “Herbicidal compositions comprising isoxazolo[5,4-b]pyridines” (BASF SE, priority 2014, dated 2021)
# Legend:
# Assay in all cases: greenhouse post-emergence herbicidal test
# ALOMY = assay type: in vivo, Alopecurus myosuroides; parameters: key to herbicidal activity against ALOMY found: rating on a scale from 0 to 100; conditions: post emergence; for herbicidal activity against ALOMY found: single active
# In short: (§1)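 Once 1 to 15 cm tall, potted seedlings in loamy sand received the active compounds emulsified or suspended in water. After 20 days, damage versus untreated growth was graded on a 0–100 scale, and synergy judged against Colby's additive value E.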
# GALAP = assay type: in vivo, Galium aparine; parameters: key to herbicidal activity against GALAP found: rating on a scale from 0 to 100; conditions: for herbicidal activity against GALAP found: single active
# In short: (§2)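 Post-emergence greenhouse test: plants in loamy sand, sprayed at 1–15 cm height with aqueous spray liquor from 10% emulsion concentrates, kept at 10-25 °C or 20-35 °C by species. Damage scored 0–100 (100 = complete destruction), usually 20 days after treatment. Expected additive effect E from Colby: E=X+Y−(X·Y/100).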
# AMBEL = assay type: in vivo, Ambrosia artemisiifolia; parameters: key: rating on a scale from 0 to 100
# Experimental: (§3) The culture containers used were plastic pots containing medium loamy sand with approximately 4.6% of humus and 69.9% sand as substrate. The seeds of the test plants were sown separately for each species.
# (§4) For the post-emergence treatment, the test plants were grown to a plant height of from 1 to 15 cm, depending on the plant habit, and only then treated with the active compounds which had been suspended or emulsified in water. To this end, the test plants were either sown directly, and grown in the same containers, or they were first grown separately as seedlings and transplanted into the test containers a few days prior to treatment.
# (§5) Depending on the species, the plants were kept at 10-25° C. and 20-35° C., respectively.
# (§6) The test period extended over 1 to 3 weeks. During this time, the plants were tended and their response to the individual treatments was evaluated 20 days after treatment except mentioned otherwise.
# (§7) Evaluation was carried out using a scale from 0 to 100. 100 means no emergence of the plants, or complete destruction of at least the above-ground parts, and 0 means no damage or normal course of growth.
# (§8) The respective stated components A and B, and, if appropriate, C, were formulated as a 10% by weight strength emulsion concentrate and, with addition of the amount of solvent system, introduced into the spray liquor used for applying the active compound. In the examples, the solvent used was water.
# (§9) In the examples below, using the method of S. R. Colby (1967) “Calculating synergistic and antagonistic responses of herbicide combinations”, Weeds 15, p. 22 ff., the value E, which is expected if the activity of the individual active compounds is only additive, was calculated. E=X+Y−(X·Y/100)
# APESV = assay type: in vivo, Apera spica-venti; parameters: key to herbicidal activity against APESV found: rating on a scale from 0 to 100; conditions: for herbicidal activity against APESV found: single active
# In short: as §1
# MATCH = assay type: in vivo, Matricaria recutita; parameters: key to herbicidal activity against MATCH found: rating on a scale from 0 to 100; conditions: for herbicidal activity against MATCH found: single active
# In short: as §1
# PAPRH = assay type: in vivo, Papaver rhoeas; parameters: key: rating on a scale from 0 to 100; conditions: B.93 alone 1.5 g/ha a.i.
# In short: as §1
# POLCO = assay type: in vivo, Polygonum convolvulus; parameters: key to herbicidal activity against POLCO found: rating on a scale from 0 to 100; conditions: for herbicidal activity against POLCO found: single active
# In short: as §2
# SASKR = assay type: in vivo, Salsola kali; parameters: key: scale 0 to 100; conditions: 9.375 g/ha a.i.
# Experimental: as §3, §4, §5, §6, §7, §8, §9
# ERICA = assay type: in vivo, Conyza canadensis; parameters: key to herbicidal activity against ERICA found: rating on a scale from 0 to 100; conditions: post emergence; for herbicidal activity against ERICA found: single active
# In short: as §1
# IPOHE = assay type: in vivo, Ipomoea hederacea; parameters: key to herbicidal activity against IPOHE found: rating on a scale from 0 to 100; conditions: post emergence
# In short: as §2
# KCHSC = assay type: in vivo, Kochia scoparia; parameters: key to herbicidal activity against KCHSC found: rating on a scale from 0 to 100; conditions: single active, 3 g/ha a.i., post emergence
# In short: as §2
# ABUTH = assay type: in vivo, Abutilon theophrast; parameters: key to herbicidal activity against ABUTH found: rating on a scale from 0 to 100
# In short: as §1
# GERDI = assay type: in vivo, Geranium dissectum; parameters: key to herbicidal activity against GERDI found: rating on a scale from 0 to 100; conditions: single active, post emergence
# In short: as §1
# VIOAR = assay type: in vivo, Viola arvensis; parameters: key to herbicidal activity against VIOAR found / herbicidal activity against VIOLA found: rating on a scale from 0 to 100; conditions: single active, 175 g/ha a.i., post emergence
# In short: as §2
# ECHCG = assay type: in vivo, Echinochloa crus-galli; parameters: key to herbicidal activity against ECHCG found / herbicidal activity against ECHCH found: scale 0 to 100
# In short: as §1
# [1] = Echinochloa crus-galli, post-emergence, 480 h, read-out: herbicidal activity against ECHCG found
# [2] = Abutilon theophrasti, post-emergence, 480 h, read-out: herbicidal activity against ABUTH found
structure (smiles),measurement,setting,value
"Cc1nn(-c2cc(NS(C)(=O)=O)c(Cl)cc2Cl)c(=O)n1C(F)F [B.93, sulfentrazone]",pest or weed control at 1.5 g/ha,"ALOMY; Alopecurus myosuroides, post-emergence, 480 h, B.93 alone 1.5 g/ha a.i., read-out: herbicidal activity against ALOMY found",0%
same,pest or weed control at 1.5 g/ha,"GALAP; Galium aparine, post-emergence, 480 h, B.93 alone 1.5 g/ha a.i., post emergence, read-out: herbicidal activity against GALAP found",45%
same,herbicidal activity against AMBEL found,AMBEL; B.93 alone 1.5 g/ha a.i.,20
same,herbicidal activity against AMBEL found,AMBEL; B.93 alone 6 g/ha a.i.,30
same,pest or weed control at 1.5 g/ha,"APESV; Apera spica-venti, post-emergence, 480 h, B.93 alone 1.5 g/ha a.i., post emergence, read-out: herbicidal activity against APESV found",10%
same,pest or weed control at 1.5 g/ha,"MATCH; Matricaria chamomilla, post-emergence, 480 h, B.93 alone 1.5 g/ha a.i., post emergence, read-out: herbicidal activity against MATCH found",0%
same,pest or weed control at 3 g/ha,"MATCH; Matricaria chamomilla, post-emergence, 480 h, B.93 alone 3 g/ha a.i., post emergence, read-out: herbicidal activity against MATCH found",50%
same,pest or weed control at 6 g/ha,"MATCH; Matricaria chamomilla, post-emergence, 480 h, B.93 alone 6 g/ha a.i., post emergence, read-out: herbicidal activity against MATCH found",50%
same,herbicidal activity against PAPRH found,PAPRH,70
same,pest or weed control at 3 g/ha,"POLCO; Fallopia convolvulus, post-emergence, 480 h, B.93 alone 3 g/ha a.i., post emergence, read-out: herbicidal activity against POLCO found",85%
same,pest or weed control at 6 g/ha,"POLCO; Fallopia convolvulus, post-emergence, 480 h, B.93 alone 6 g/ha a.i., post emergence, read-out: herbicidal activity against POLCO found",85%
"CS(=O)(=O)c1ccc(C(=O)C2C(=O)CCCC2=O)c(Cl)c1COCC(F)(F)F [B.106, tembotrione]",herbicidal activity against SASKR found,SASKR,65
same,pest or weed control at 9.375 g/ha,"ERICA; Erigeron canadensis, post-emergence, 480 h, 9.375 g/ha a.i., read-out: herbicidal activity against ERICA found",90%
same,pest or weed control at 9.375 g/ha,"MATCH; Matricaria chamomilla, post-emergence, 480 h, post emergence, 9.375 g/ha a.i., read-out: herbicidal activity against MATCH found",65%
same,pest or weed control at 9.375 g/ha,"IPOHE; Ipomoea hederacea, post-emergence, 480 h, 9.375 g/ha a.i., read-out: herbicidal activity against IPOHE found",70%
"Cc1ccc2c(c1)[C@H](Nc1nc(N)nc(C(C)F)n1)[C@@H](C)C2 (some centres unmarked) [B.178, indaziflam]",herbicidal activity against GALAP found,"GALAP; 3 g/ha a.i., post emergence",65
same,herbicidal activity against GALAP found,"GALAP; 6 g/ha a.i., post emergence",60
same,herbicidal activity against AMBEL found,"AMBEL; single active, 6 g/ha a.i.",70
same,herbicidal activity against KCHSC found,KCHSC,15
same,herbicidal activity against ABUTH found,"ABUTH; single active, 6 g/ha a.i., post emergence",60
same,herbicidal activity against APESV found,"APESV; 3 g/ha a.i., post emergence",40
same,herbicidal activity against ERICA found,ERICA; 3 g/ha a.i.,15
same,herbicidal activity against ERICA found,ERICA; 6 g/ha a.i.,60
same,herbicidal activity against MATCH found,"MATCH; 3 g/ha a.i., post emergence",35
same,herbicidal activity against GERDI found,GERDI; 3 g/ha a.i.,55
same,herbicidal activity against GERDI found,GERDI; 6 g/ha a.i.,55
COCC(C)N(C(=O)CCl)c1c(C)csc1C (centres unmarked) [DMTA],herbicidal activity against VIOLA found,VIOAR,0
same,herbicidal activity against ALOMY found,ALOMY; 175 g/ha a.i.,0
same,herbicidal activity against ALOMY found,ALOMY; 350 g/ha a.i.,45
same,herbicidal activity against AMBEL found,"AMBEL; single active, 175 g/ha a.i.",0
same,herbicidal activity against AMBEL found,"AMBEL; single active, 350 g/ha a.i.",20
same,herbicidal activity against ECHCG found,"ECHCG; single active, 175 g/ha a.i., post emergence",90
same,herbicidal activity against APESV found,"APESV; 175 g/ha a.i., post emergence",95
same,herbicidal activity against ERICA found,ERICA; 175 g/ha a.i.,15
same,herbicidal activity against MATCH found,"MATCH; 175 g/ha a.i., post emergence",30
same,herbicidal activity against MATCH found,"MATCH; 350 g/ha a.i., post emergence",30
same,herbicidal activity against IPOHE found,"IPOHE; single active, 350 g/ha a.i.",25
same,herbicidal activity against GERDI found,GERDI; 175 g/ha a.i.,30
same,herbicidal activity against GERDI found,GERDI; 350 g/ha a.i.,60
same,herbicidal activity against POLCO found,"POLCO; 175 g/ha a.i., post emergence",0
same,herbicidal activity against POLCO found,"POLCO; 350 g/ha a.i., post emergence",25
COc1nc(C)nc(=NC(=O)NS(=O)(=O)c2ccccc2C(=O)O)[nH]1 [metsulfuron],pest or weed control at 0.125 g/ha,"GALAP; Galium aparine, post-emergence, 480 h, read-out: herbicidal activity against GALAP found",10%
same,herbicidal activity against AMBEL found,AMBEL; metsulfuron alone 0.125 g/ha a.i.,0
same,pest or weed control at 0.125 g/ha,ECHCG; [1],0%
same,pest or weed control at 0.25 g/ha,ECHCG; [1],25%
same,pest or weed control at 0.125 g/ha,ABUTH; [2],20%
same,pest or weed control at 0.25 g/ha,ABUTH; [2],80%
same,pest or weed control at 0.25 g/ha,"APESV; Apera spica-venti, post-emergence, 480 h, read-out: herbicidal activity against APESV found",30%
same,pest or weed control at 0.125 g/ha,"MATCH; Matricaria chamomilla, post-emergence, 480 h, read-out: herbicidal activity against MATCH found",0%
same,pest or weed control at 0.125 g/ha,"POLCO; Fallopia convolvulus, post-emergence, 480 h, read-out: herbicidal activity against POLCO found",30%
